Test results reported in paper PMC11764150 (2025).
Like-named read-outs stand apart in the source and are kept apart here.

Experiments:
[1] = system: MET Apt-AuNP (biotin-ended MET aptamer) (DNA, aptamer) AGGAATTCAGATCTCCCTGCAGAAAACAGACCACCCACTTTGAATCCACTTGACTCGAGGAGCTCAGGATCCCG; assay: competitive lateral flow assay
[2] = system: COC aptamer (DNA, aptamer) AGGAATTCAGATCTCCCTGCAGTTCGAGGAAGAATAGACCTGCCTTCTAATAGCTCGAGGAGCTCAGGATCCCG; assay: isothermal titration calorimetry; details: 100 mM NaCl, 2.7 mM KCl, 2 mM MgCl2
[3] = system: COC Apt-AuNP (biotin-ended COC aptamer) (DNA, aptamer) AGGAATTCAGATCTCCCTGCAGTTCGAGGAAGAATAGACCTGCCTTCTAATAGCTCGAGGAGCTCAGGATCCCG; assay: competitive lateral flow assay
[4] = system: MET aptamer (DNA, aptamer) AGGAATTCAGATCTCCCTGCAGAAAACAGACCACCCACTTTGAATCCACTTGACTCGAGGAGCTCAGGATCCCG; assay: isothermal titration calorimetry; details: 100 mM NaCl, 2.7 mM KCl, 2 mM MgCl2

SMILES | binding [1] | Kd [2] [nM] | binding ([3]; synthetic saliva, gold nanoparticle conjugate, COC-BSA test line, positive at 5.0 ng/mL to 1.0 µg/mL) | binding [3] | Kd [4] [nM] | binding ([3]; synthetic saliva, gold nanoparticle conjugate, COC-BSA test line)
COC(=O)[C@H]1[C@@H](OC(=O)c2ccccc2)C[C@@H]2CC[C@H]1N2C | no | 306 | yes |  |  | 
CCCCCc1cc(O)c2c(c1)OC(C)(C)[C@@H]1CCC(C)=C[C@@H]21 | no |  |  | no |  | 
CN[C@@H](C)Cc1ccccc1 | yes |  |  |  | 570 | no
COc1ccc2c3c1O[C@H]1[C@@H](O)C=C[C@H]4[C@@H](C2)N(C)CC[C@@]341 | no |  |  | no |  | 
